In brackets after ≈: the same amount, converted by molar mass. Counter-ions that a name gives are not always drawn.

The first experiment relates to P. mirabilis 889. Briefly: MIC against P. mirabilis 889. Type of experiment: cell-based. Particulars: P. mirabilis 889.
Take `CC(=O)OCC1=C(C(=O)O)N2C(=O)[C@@](NC=O)(NC(=O)C(NC(N)=O)c3cccs3)[C@H]2SC1` (single isomer, unassigned) [Example 52 (Isomer 1), 7β-[2-[(Aminocarbonyl)amino]-2-(thien-2-yl)acetamido]-7α-formamidocephalosporanic acid, sodium salt (Isomer 1)]: the “MIC against P. mirabilis 889” value worked out at 125 µg/mL. As to `CC(=O)OCC1=C(C(=O)O)N2C(=O)[C@@](NC=O)(NC(=O)C(NC(N)=O)c3cccs3)[C@H]2SC1` (single isomer, unassigned) [Example 52 (Isomer 2), 7β-[2-[(Aminocarbonyl)amino]-2-(thien-2-yl)acetamido]-7α-formamidocephalosporanic acid, sodium salt (Isomer 2)], the “MIC against P. mirabilis 889” value is 25 µg/mL.

The experiment is the same for the next values; noted with them: Proteus mirabilis, 889, P. mirabilis 889.
The molecule `CCN1CCN(C(=O)NC(C(=O)N[C@]2(NC=O)C(=O)N3C(C(=O)O)=C(CSc4nnnn4C)CS[C@@H]32)c2ccc(OC(C)=O)c(OC(C)=O)c2)C(=O)C1=O` (single isomer, unassigned) [Example 57 (isomer 2), 7β-[2-(3,4-Diacetoxyphenyl)-2-[(4-ethyl-2,3-dioxopiperazin-1-yl)carbonylamino]acetamido]-7α-formamido-3-[(1-methyl-1H-tetrazol-5-yl)thiomethyl]ceph-3-em-4-carboxylic acid, sodium salt, isomer 2] returned an MIC of 0.1 µg/mL.

In turn, `CC1(C)S[C@H]2N(C(=O)[C@@]2(NC=O)NC(=O)COc2ccccc2)[C@H]1C(=O)O` [Example 1, 6α-Formamido-6β-phenoxyacetamido penicillanic acid sodium salt] displayed an MIC of more than 100 µg/mL. The same measure, in the same setting: next, `CC1(C)S[C@H]2N(C(=O)[C@@]2(NC=O)NC(=O)C(C(=O)O)c2ccccc2)[C@H]1C(=O)O` (stereo partly drawn) [Example 2, 6α-Formamido-6β-(2-carboxy-2-phenylacetamido)penicillanic acid, di-sodium salt]: 50 µg/mL; `CC1(C)S[C@H]2N(C(=O)[C@@]2(NC=O)NC(=O)C(C(=O)O)c2ccsc2)[C@H]1C(=O)O` (stereo partly drawn) [Example 3, 6α-Formamido-6β-[2-carboxy-2-(3-thienyl)acetamido]penicillanic acid, di-sodium salt]: 25 µg/mL. Same read-out and setting: under `CCN1CCN(C(=O)N[C@@H](C(=O)N[C@]2(NC=O)C(=O)N3[C@@H](C(=O)O)C(C)(C)S[C@@H]32)c2ccccc2)C(=O)C1=O` [Example 4, 6α-Formamido-6β-[D-2-[(4-ethyl-2,3-dioxopiperazin-1-yl)carbonylamino]-2-phenylacetamido]penicillanic acid, sodium salt] stands 0.2 µg/mL; under `CCN1CCN(C(=O)N[C@H](C(=O)N[C@]2(NC=O)C(=O)N3[C@@H](C(=O)O)C(C)(C)S[C@@H]32)c2ccc(O)cc2)C(=O)C1=O` [Example 6, 6α-Formamido-6β-[L-2-[(4-ethyl-2,3-dioxopiperazin-1-yl)carbonylamino]-2-(4-hydroxyphenyl)acetamido]penicillanic acid, sodium salt], 125 µg/mL. In turn, `CC1(C)S[C@H]2N(C(=O)[C@@]2(NC=O)NC(=O)[C@H](NC(=O)Nc2cnc(Nc3ccccc3)nc2O)c2ccccc2)[C@H]1C(=O)O` [Example 7, 6α-Formamido-6β-[D-2-(2-phenylamino-4-hydroxypyrimidin-5-ylureido)-2-phenylacetamido]penicillanic acid, di-sodium salt] gave an MIC of 5 µg/mL.

Molecule `CC1(C)S[C@H]2N(C(=O)[C@@]2(NC=O)NC(=O)[C@H](N)c2ccccc2)[C@H]1C(=O)O` [Example 8, 6α-Formamido-6β-(D-2-amino-2-phenylacetamido)penicillanic acid] came in with an MIC of 25 µg/mL (≈ 63.7 µM). This MIC lies about 5-fold higher than the previous one. `CC1(C)S[C@H]2N(C(=O)[C@@]2(NC=O)NC(=O)[C@H](N)c2ccc(O)cc2)[C@H]1C(=O)O` [Example 9, 6α-Formamido-6β-[D-2-amino-2-(4-hydroxyphenyl)acetamido]penicillanic acid]: the MIC worked out at 50 µg/mL (≈ 122 µM). Same read-out and setting: next, `CN(C(=O)C=Cc1ccccc1)C(=O)N[C@@H](C(=O)N[C@]1(NC=O)C(=O)N2[C@@H](C(=O)O)C(C)(C)S[C@@H]21)c1ccccc1` [Example 10, 6α-Formamido-6β-[D-2-(3-cinnamoyl-3-methylureido)-2-phenylacetamido]penicillanic acid, sodium salt]: 1 µg/mL. Still for that read-out and setting: under `CC1(C)S[C@H]2N(C(=O)[C@@]2(NC=O)NC(=O)[C@H](NC(=O)N2CCNC2=O)c2ccccc2)[C@H]1C(=O)O` [Example 11, 6α-Formamido-6β-[D-2-(2-oxoimidazolidin-1-ylcarbonylamino)-2-phenylacetamido]penicillanic acid sodium salt] stands 1 µg/mL; under `CC1(C)S[C@H]2N(C(=O)[C@@]2(NC=O)NC(=O)[C@H](NC(=O)N2CCN(S(C)(=O)=O)C2=O)c2ccccc2)[C@H]1C(=O)O` [Example 12, 6α-Formamido-6β-[D-2-(3-methylsulphonyl-2-oxoimidazolidin-1-ylcarbonylamino)-2-penylacetamido]penicillanic acid, sodium salt], 0.5 µg/mL; under `CN(C(=O)N[C@@H](C(=O)N[C@]1(NC=O)C(=O)N2[C@@H](C(=O)O)C(C)(C)S[C@@H]21)c1ccccc1)C(=O)c1cccs1` [Example 13, 6α-Formamido-6β-[D-2-[3-methyl-3-(2-thienylcarbonyl)ureido]-2-phenylacetamido]penicillanic acid, sodium salt], 2.5 µg/mL. The same measure, in the same setting: under `CC1(C)S[C@H]2N(C(=O)[C@@]2(NC=O)NC(=O)[C@H](NC(=O)c2cnc3ncnn3c2O)c2ccccc2)[C@H]1C(=O)O` [Example 14, 6α-Formamido-6β-[D-2-(7-hydroxy-1,2,4-triazolo[2,3-a]pyrimidin-6-ylcarboxamido)-2-phenylacetamido]penicillanic acid, disodium salt] stands more than 100 µg/mL. Molecule `CC1(C)S[C@H]2N(C(=O)[C@@]2(NC=O)NC(=O)[C@H](NC(=O)c2cnc(NCc3ccccc3)nc2O)c2ccccc2)[C@H]1C(=O)O` [Example 15, 6α-Formamido-6β-[D-2-(2-benzylamino-4-hydroxypyrimidin-5-ylcarboxamido)-2-phenylacetamido]penicillanic acid, disodium salt] registered an MIC of 50 µg/mL. Same read-out and setting: next, `CC1(C)S[C@H]2N(C(=O)[C@@]2(NC=O)NC(=O)[C@H](NC(=O)N2CCNC2=O)c2ccc(O)cc2)[C@H]1C(=O)O` [Example 16, 6α-Formamido-6β-[D-2-(2-oxoimidazolidin-1-ylcarbonylamino)-2-(4-hydroxyphenyl)acetamido]penicillanic acid, sodium salt]: 0.5 µg/mL; `CN(C(=O)C=Cc1ccccc1)C(=O)N[C@@H](C(=O)N[C@]1(NC=O)C(=O)N2[C@@H](C(=O)O)C(C)(C)S[C@@H]21)c1ccc(O)cc1` [Example 17, 6α-Formamido-6β-[D-2-(3-cinnamoyl-3-methylureido)-2-(4-hydroxyphenyl)acetamido]penicillanic acid, sodium salt]: 2.5 µg/mL.

`CCN1CCN(C(=O)N[C@@H](C(=O)N[C@]2(NC=O)C(=O)N3[C@@H](C(=O)O)C(C)(C)S[C@@H]32)c2ccc(OC(C)=O)c(OC(C)=O)c2)C(=O)C1=O` [Example 18, 6β-[D-2-[(4-Ethyl-2,3-dioxopiperazin-1-yl)carbonylamino]-2-(3,4-diacetoxyphenyl)acetamido]-6α-formamidopenicillanic acid, sodium salt] gave an MIC of 0.5 µg/mL. In turn, `CC1(C)S[C@H]2N(C(=O)[C@@]2(NC=O)NC(=O)[C@H](NC(=O)Nc2cnc(Nc3ccc(S(N)(=O)=O)cc3)nc2O)c2ccc(O)cc2)[C@H]1C(=O)O` [Example 19, 6β-[D-2-[3-[2-(4-Aminosulphonylphenyl)amino-4-hydroxypyrimidin-5-yl]ureido]-2-(4-hydroxyphenyl)acetamido]-6α-formamidopenicillanic acid, disodium salt] registered an MIC of 0.5 µg/mL. Same read-out and setting: under `CC1(C)S[C@H]2N(C(=O)[C@@]2(NC=O)NC(=O)[C@H](NC(=O)N2CCN(N=Cc3ccco3)C2=O)c2ccc(O)cc2)[C@H]1C(=O)O` [Example 20, 6α-Formamido-6β-[D-2-[[3-(furan-2-ylmethyleneamino)-2-oxoimidazolidin-1-yl]carbonylamino]-2-(4-hydroxyphenyl)acetamido]penicillanic acid, sodium salt] stands 0.25 µg/mL.

The molecule `CC1(C)S[C@H]2N(C(=O)[C@@]2(NC=O)NC(=O)[C@H](NC(=O)[C@@H](Cc2ccccc2)NC(N)=O)c2ccc(O)cc2)[C@H]1C(=O)O` [Example 21, 6β-[D-2-(D-2-Carbamoylamino-3-phenylpropionamido)-2-(4-hydroxyphenyl)acetamido]-6α-formamidopenicillanic acid, sodium salt] registered an MIC of 2.5 µg/mL.

In the case of `CC1(C)S[C@H]2N(C(=O)[C@@]2(NC=O)NC(=O)C(NC(=O)c2cc3ccccc3oc2=O)c2ccc(O)cc2)[C@H]1C(=O)O` (stereo partly drawn) [Example 22, 6β-[2-[(Coumarin-3-yl)carbonylamino]-2-(4-hydroxyphenyl)acetamido]-6α-formamidopenicillanic acid, sodium salt], the MIC worked out at 10 µg/mL. Compared with the last molecule, the MIC is about 4-fold higher. On to `CC1(C)S[C@H]2N(C(=O)[C@@]2(NC=O)NC(=O)[C@H](NC(=O)N2CCN(S(C)(=O)=O)C2=O)c2ccc(O)cc2)[C@H]1C(=O)O` [Example 24, 6α-Formamido-6β-[D-2-(4-hydroxyphenyl)-2-[(3-methylsulphonyl-2-oxoimidazolidin-1-yl)carbonylamino]acetamido]penicillanic acid, sodium salt], for which the minimal inhibitory concentration (MIC) is 0.1 µg/mL.

Molecule `CCOC(=O)c1[nH]cnc1C(=O)N[C@@H](C(=O)N[C@]1(NC=O)C(=O)N2[C@@H](C(=O)O)C(C)(C)S[C@@H]21)c1ccc(O)cc1` [Example 25, 6β-[D-2-[(5-Ethoxycarbonylimadazol-4-yl)carbonylamino]-2-(4-hydroxyphenyl)acetamido]-6α-formamidopenicillanic acid, sodium salt] showed a minimum inhibitory concentration (MIC) of 10 µg/mL. The same measure, in the same setting: next, `CCN1CCN(C(=O)N[C@@H](C(=O)N[C@]2(NC=O)C(=O)N3[C@@H](C(=O)O)C(C)(C)S[C@@H]32)c2cccs2)C(=O)C1=O` [Example 26, 6β-[D-2-(4-Ethyl-2,3-dioxopiperazin-1-yl)carbonylamino]-2-(thien-2-yl)acetamido]-6α-formamidopenicillanic acid, sodium salt]: 0.1 µg/mL.
